The values below come from US20230140290A1, “SALICYLAMIDE DERIVATIVES AND RELATED METHODS OF MAKING” (THE BOARD OF REGENTS OF THE UNIVERSITY OF TEXAS SY, priority 2020, published 2023).

One series deals with A549 cells. As to the kind of experiment: Cytotoxicity assay (AlamarBlue). As to conditions: read-out: CC50 (μM), cytotoxic concentration 50%; A549 cell line, 48 h. Here is the method: Cytotoxicity Assay. The cytotoxicity of the compounds was analyzed by commercial kit AlamarBlue® (Invitrogen, Ref. DAL1025). A549 cells at a density of 5×10^3 cells per well in 96-well plates were seeded. […] Cells were then incubated at 37° C. for 48 h following the kit protocol. The cytotoxic concentration 50 (CC50) value was obtained using the statistical package GraphPad Prism. This assay was performed in duplicate.

Another series has as its system HAdV5-GFP. As to the kind of experiment: Plaque assay (inhibition of HAdV plaque formation). The settings on record: for inhibition at 10 µM: read-out: Plaque Assay (%) Inhibition (10 μM); for IC50: read-out: Plaque Assay IC50 (μM), HAdV5-GFP, low MOI, 293β5 cell line; for Selectivity index (SI): ratio of CC50 to IC50 in plaque assay. In kind it is cell-based, HAdV-5. The procedure: Plaque Assay. […] When cells reached 80-90% confluency, they were infected with HAdV5-GFP (0.06 vp/cell) and rocked for 2 h at 37° C. After the incubation the inoculum was removed, and the cells were washed once with PBS.
Plaque Assay. Compounds were tested using low MOI infections (0.06 vp/cell) and at concentrations of 10 μM and in a dose-response assay ranging from 10 to 0.3 μM in a plaque assay. […] When cells reached 80-90% confluency, they were infected with HAdV5-GFP (0.06 vp/cell) and rocked for 2 h at 37° C. After the incubation the inoculum was removed, and the cells were washed once with PBS. […] The mixture also contained the compounds in concentrations ranging from 10 to 0.3 μM.

In general, inhibition refers to the percentage by which the read-out fell short of the control. One may read the IC50 as the concentration needed to halve the response being measured. `O=C(Nc1cc(F)cc(C(F)(F)F)c1)c1ccccc1O` [Compound 18, N-(3-Fluoro-5-(trifluoromethyl)phenyl)-2-hydroxybenzamide]: in the series on A549 cells, the CC50 was found to be 16.3 µM. In the series with HAdV5-GFP, the inhibition at 10 µM worked out at 98.7 ± 1.9% and the IC50 was 1.07 µM.

As for `Cc1ccc(O)c(C(=O)Nc2cc(F)cc(C(F)(F)F)c2)c1` [Compound 19, N-(3-Fluoro-5-(trifluoromethyl)phenyl)-2-hydroxy-5-methylbenzamide], the CC50 in the series with A549 cells was 15.2 µM. Moreover, in the series on HAdV5-GFP, the inhibition at 10 µM amounted to 98 ± 2.8% and the IC50 is 0.65 µM.

With `O=C(Nc1cc(F)cc(C(F)(F)F)c1)c1cccc(Cl)c1` [Compound 21, 3-Chloro-N-(3-fluoro-5-(trifluoromethyl)phenyl)benzamide], in the series on A549 cells, the CC50 came out at 38.6 ± 1.7 µM. Moreover, in the series with HAdV5-GFP, the “Selectivity index (SI)” value came out at 6.9, the inhibition at 10 µM stood at 99.3 ± 0.9% and the IC50 turned out to be 5.61 ± 0.37 µM.

For the compound `O=C(NCc1ccc([N+](=O)[O-])cc1Cl)c1cc(Cl)ccc1O` [Compound 30, 5-Chloro-N-(2-chloro-4-nitrobenzyl)-2-hydroxybenzamide], the CC50 with A549 cells came to 51.4 ± 3.7 µM. In the series with HAdV5-GFP, the inhibition at 10 µM is 100% and the concentration for half-maximal inhibition (IC50) stood at 1.4 ± 0.11 µM.

Turning to `O=C(NCc1ccc(F)cc1Cl)c1cc(Cl)ccc1O` [Compound 31, 5-Chloro-N-(2-chloro-4-fluorobenzyl)-2-hydroxybenzamide], the CC50 in the series with A549 cells came to 30.9 ± 10.2 µM. Also, in the series on HAdV5-GFP, the “Selectivity index (SI)” value stood at 12.1, the inhibition at 10 µM was found to be 97.1 ± 4.1% and the 50% inhibitory concentration (IC50) amounted to 2.56 ± 0.06 µM.

Consider `O=C(NCc1ccc(Cl)cc1Cl)c1cc(Cl)ccc1O` [Compound 32, 5-Chloro-N-(2,4-dichlorobenzyl)-2-hydroxybenzamide], for which the CC50 with A549 cells turned out to be 30.9 ± 13.6 µM. Besides, in the series on HAdV5-GFP, the inhibition at 10 µM was found to be 99.2 ± 0.4% and the IC50 is 1.73 ± 0.51 µM.

Take `O=C(NCc1cc(F)cc(C(F)(F)F)c1)c1cc(Cl)ccc1O` [Compound 35, 5-Chloro-N-(3-fluoro-5-(trifluoromethyl)benzyl)-2-hydroxybenzamide]: the CC50 in the series on A549 cells stood at 36.3 ± 7.9 µM. Moreover, in the series on HAdV5-GFP, the “Selectivity index (SI)” value is reported as 15.1, the inhibition at 10 µM amounted to 98.1 ± 1.4% and the IC50 was 2.4 ± 0.05 µM.

With `O=C(NCc1ccc(C(F)(F)F)c(F)c1)c1cc(Cl)ccc1O` [Compound 36, 5-Chloro-N-(3-fluoro-4-(trifluoromethyl)benzyl)-2-hydroxybenzamide], the CC50 in the series on A549 cells came out at 22.3 ± 7.2 µM. Besides, in the series with HAdV5-GFP, the inhibition at 10 µM came out at 99 ± 1.5% and the IC50 stood at 1.4 ± 0.02 µM.

On to `O=C(NCc1ccc(C(F)(F)F)cc1F)c1cc(Cl)ccc1O` [Compound 37, 5-Chloro-N-(2-fluoro-4-(trifluoromethyl)benzyl)-2-hydroxybenzamide], for which, in the series with A549 cells, the CC50 came out at 45.6 ± 7.3 µM. Besides, in the series on HAdV5-GFP, the inhibition at 10 µM worked out at 98.8 ± 0.8% and the IC50 stood at 1.32 ± 0.04 µM.

In the case of `O=C(NCc1ccc(Cl)cc1)c1cc(Cl)ccc1O` [Compound 38, 5-Chloro-N-(4-chlorobenzyl)-2-hydroxybenzamide], the CC50 in the series with A549 cells stood at 27.1 ± 1.1 µM. Moreover, in the series with HAdV5-GFP, the “Selectivity index (SI)” value was 7.6, the inhibition at 10 µM was 97.4 ± 3.7% and the IC50 was 3.57 ± 1.43 µM.

For the compound `O=C(NCc1ccc(C(F)(F)F)cc1)c1cc(Cl)ccc1O` [Compound 42, 5-Chloro-2-hydroxy-N-(4-(trifluoromethyl)benzyl)benzamide], the CC50 with A549 cells is 23.9 ± 9.2 µM. In the series with HAdV5-GFP, the “Selectivity index (SI)” value is 9.2, the inhibition at 10 µM came out at 99.6 ± 0.2% and the 50% inhibitory concentration (IC50) came to 2.59 ± 0.42 µM.

For the compound `O=C(NCc1ccc([N+](=O)[O-])cc1)c1cc(Cl)ccc1O` [Compound 43, 5-Chloro-2-hydroxy-N-(4-nitrobenzyl)benzamide], in the series on A549 cells, the CC50 was determined as 175 ± 43.9 µM. Also, in the series on HAdV5-GFP, the “Selectivity index (SI)” value was 26.7, the inhibition at 10 µM is 99.5 ± 0.7% and the IC50 is 6.56 ± 0.47 µM.

Regarding `Cc1ccc(CNC(=O)c2cc(Cl)ccc2O)cc1` [Compound 44, 5-Chloro-2-hydroxy-N-(4-methylbenzyl)benzamide], the CC50 in the series with A549 cells came to 87.7 ± 4.7 µM. In the series on HAdV5-GFP, the “Selectivity index (SI)” value was 10.8, the inhibition at 10 µM is 96.6 ± 4% and the IC50 came to 8.12 ± 2.16 µM.

Consider `C[C@@H](NC(=O)c1cc(Cl)ccc1O)c1ccccc1` [Compound 46, (R)-5-Chloro-2-hydroxy-N-(1-phenylethyl)benzamide], for which, in the series with A549 cells, the CC50 stood at 84.6 ± 20.5 µM. Moreover, in the series with HAdV5-GFP, the inhibition at 10 µM came to 100%.

Turning to `C[C@H](NC(=O)c1cc(Cl)ccc1O)c1ccccc1` [Compound 47, (S)-5-Chloro-2-hydroxy-N-(1-phenylethyl)benzamide], in the series on A549 cells, the CC50 worked out at 199 µM. In the series with HAdV5-GFP, the “Selectivity index (SI)” value is 78.5, the inhibition at 10 µM came to 100% and the IC50 was 2.54 µM.

As to `C[C@@H](NC(=O)c1cc(Cl)ccc1O)c1ccc(Cl)cc1` [Compound 48, (R)-5-Chloro-N-(1-(4-chlorophenyl)ethyl)-2-hydroxybenzamide], in the series with A549 cells, the CC50 stood at 31.1 ± 3.2 µM. Further, the inhibition at 10 µM in the series with HAdV5-GFP turned out to be 100%.

With `O=C(NCCc1ccc(F)cc1)c1cc(Cl)ccc1O` [Compound 52, 5-Chloro-N-(4-fluorophenethyl)-2-hydroxybenzamide], in the series on A549 cells, the CC50 is 154 µM. Besides, in the series with HAdV5-GFP, the “Selectivity index (SI)” value was 39.1, the inhibition at 10 µM is 98.7 ± 1.8% and the IC50 was 3.94 µM.

Consider `O=C(Cc1cc(Cl)ccc1O)Nc1cc(F)cc(C(F)(F)F)c1` [Compound 53, 2-(5-Chloro-2-hydroxyphenyl)-N-(3-fluoro-5-(trifluoromethyl)phenyl)acetamide], for which the CC50 in the series on A549 cells was found to be 23.7 ± 1.5 µM. In addition, in the series on HAdV5-GFP, the “Selectivity index (SI)” value is listed as 4.8, the inhibition at 10 µM was 91 ± 3.6% and the IC50 is 4.92 µM.

With `O=C(CNC(=O)c1cc(Cl)ccc1O)Nc1ccc([N+](=O)[O-])cc1Cl` [Compound 56, 5-Chloro-N-(2-((2-chloro-4-nitrophenyl)amino)-2-oxoethyl)-2-hydroxybenzamide], the CC50 in the series with A549 cells was determined as 129 µM. In addition, in the series on HAdV5-GFP, the “Selectivity index (SI)” value was found to be 53.2, the inhibition at 10 µM is 100% and the IC50 worked out at 2.43 µM.

Regarding `C[C@H](NC(=O)c1cc(Cl)ccc1O)C(=O)Nc1ccc([N+](=O)[O-])cc1Cl` [Compound 57, (S)-5-Chloro-N-(1-((2-chloro-4-nitrophenyl)amino)-1-oxopropan-2-yl)-2-hydroxybenzamide], the CC50 with A549 cells is 100 µM. In the series on HAdV5-GFP, the “Selectivity index (SI)” value turned out to be 26.0, the inhibition at 10 µM was found to be 97.4 ± 2.7% and the IC50 turned out to be 3.85 µM.

Regarding `O=C(N[C@@H](Cc1ccccc1)C(=O)Nc1ccc([N+](=O)[O-])cc1Cl)c1cc(Cl)ccc1O` [Compound 59, (S)-5-chloro-N-(1-((2-chloro-4-nitrophenyl)amino)-1-oxo-3-phenylpropan-2-yl)-2-hydroxybenzamide], the CC50 in the series with A549 cells was 15.2 µM. Besides, in the series on HAdV5-GFP, the inhibition at 10 µM came to 100%.

On to `CC(C)(C)OC(=O)CC[C@H](NC(=O)c1cc(Cl)ccc1O)C(=O)Nc1ccc([N+](=O)[O-])cc1Cl` [Compound 64, (S)-tert-Butyl 4-(5-chloro-2-hydroxybenzamido)-5-((2-chloro-4-nitrophenyl)amino)-5-oxopentanoate], for which, in the series with A549 cells, the CC50 is 22.9 µM. In addition, in the series on HAdV5-GFP, the “Selectivity index (SI)” value is listed as 34.2, the inhibition at 10 µM is 97.3 ± 0.3% and the half-maximal inhibitory concentration (IC50) came out at 0.67 µM.
